What follows are molecules tested on Septoria tritici (assay: Activity against the Septoria leaf blotch pathogen Septoria tritici in the microtiter test (M2 / C2)). Conditions: comparison with the prior art, day 7.
Assay type: cell-based
Protocol: (§1) Leaves of soybean seedlings grown in pots were inoculated with a spore suspension of soybean rust (Phakopsora pachyrhizi). The pots were then placed in a chamber of high atmospheric humidity (90 to 95%) and 23 to 27° C. for 24 hours. During this time, the spores germinated and the germ tubes penetrated into the leaf tissue. The infected plants were then cultivated further in a greenhouse at temperatures between 23 and 27° C. and 60 to 80% relative atmospheric humidity. After two days, the plants were sprayed to runoff point with the active compound solution described above at the active compound concentration indicated below. After the spray coating had dried on, the test plants were cultivated in a greenhouse at temperatures between 23 and 27° C. and 60 to 80% relative atmospheric humidity for a further 10 days. The extent of the rust fungus development on the leaves was then determined visually in % of infection. […] B) Micro test The active compounds were formulated separately as a stock solution having a concentration of 10 000 ppm in DMSO.
The stock solution was pipetted into a microtiter plate (MTP) and diluted with water to the stated active compound concentration. […] Using an absorption photometer, the MTPs were measured at 405 nm on day 7 after the inoculation. The measured parameters were compared to the growth of the active compound-free control variant (100%) and the fungus- and active compound-free blank value to determine the relative growth in % of the pathogens in the individual active compounds. […]
(§2) The active compounds were formulated separately as a stock solution having a concentration of 10 000 ppm in DMSO. […] Using an absorption photometer, the MTPs were measured at 405 nm on day 7 after the inoculation. The measured parameters were compared to the growth of the active compound-free control variant and the fungus- and active compound-free blank value to determine the relative growth in % of the pathogens in the individual active compounds. […] […]
For `CC(C)(C)C(O)C(CCc1ccccc1)n1cncn1` (stereo not drawn) [reference compound], the “Growth (%) at 31 ppm of C2” value was 100%.
`Cc1ccc(CCC(C(O)C(C)(C)C)n2cncn2)cc1` (stereo not drawn) was tested, and the “Growth (%) at 31 ppm of C2” value was 4%.
With `Cc1ccc(C(C)CC(C(O)C(C)(C)C)n2cncn2)cc1` (stereo not drawn) the “Growth (%) at 31 ppm of C2” value was 3%.

These molecules were tested on Botrytis cinerea (assay: Activity against the gray mold pathogen Botrytis cinerea in the microtiter test (M1 / C1)). Conditions: comparison with the prior art, day 7.
Assay type: cell-based
Protocol: as §1
The stock solution was pipetted into a microtiter plate (MTP) and diluted with water to the stated active compound concentration. […] Using an absorption photometer, the MTPs were measured at 405 nm on day 7 after the inoculation. The measured parameters were compared to the growth of the active compound-free control variant and the fungus- and active compound-free blank value to determine the relative growth in % of the pathogens in the individual active compounds.
as §2
In the case of `CC(C)(C)C(O)C(CCc1ccccc1)n1cncn1` (stereo not drawn) [reference compound], the “Growth (%) at 31 ppm of C1” value was 81%.
`Cc1ccc(CCC(C(O)C(C)(C)C)n2cncn2)cc1` (stereo not drawn) was tested, and the “Growth (%) at 31 ppm of C1” value was 4%.
For `Cc1ccc(C(C)CC(C(O)C(C)(C)C)n2cncn2)cc1` (stereo not drawn), the “Growth (%) at 31 ppm of C1” value was 0%.

From US20110172098A1, “Imidazole and Triazole Compounds, Their Use and Agents Containing the Same” (priority 2008, published 2011)
